Details: 343.14 K, Liquid, Vibrating tube method

CCCCCCC(=O)OCC(COC(=O)CCCCCC)(COC(=O)CCCCCC)COC(=O)CCCCCC [pentaerythritol tetraheptanoate]
Details	mass density [kg/m3]
18157 kPa	953.7
18178 kPa	953.7
18297 kPa	953.7
18319 kPa	953.8
18346 kPa	953.8
18368 kPa	953.7
18394 kPa	953.9
18417 kPa	953.8
18440 kPa	953.8
18467 kPa	954
18490 kPa	953.8
18513 kPa	953.9
18736 kPa	954
18759 kPa	954.1
18788 kPa	954.2
18811 kPa	954.1
18834 kPa	954.2
18863 kPa	954.2
18886 kPa	954.2
18911 kPa	954.2
18939 kPa	954.2
18963 kPa	954.3
18988 kPa	954.2
19016 kPa	954.2
19305 kPa	954.6
19330 kPa	954.5
19356 kPa	954.5
19386 kPa	954.6
19411 kPa	954.6
19743 kPa	954.6
19769 kPa	954.7
19796 kPa	954.8
19828 kPa	954.7
19854 kPa	954.8
19881 kPa	954.8
19913 kPa	954.8
19941 kPa	954.8
19968 kPa	954.8
19994 kPa	954.9
20028 kPa	954.9
20054 kPa	955
20087 kPa	954.9
20115 kPa	955
20142 kPa	955
20169 kPa	955.2
20203 kPa	955.1
20230 kPa	955.1
20258 kPa	955.1
20441 kPa	955.3
20475 kPa	955.2
20533 kPa	955.4
20567 kPa	955.3
20596 kPa	955.3
20625 kPa	955.3
20660 kPa	955.3
20722 kPa	955.3
20752 kPa	955.5
20817 kPa	955.5
20847 kPa	955.4
20877 kPa	955.4
20907 kPa	955.5
20942 kPa	955.6
20972 kPa	955.5
21003 kPa	955.6
21039 kPa	955.6
21133 kPa	955.6
21170 kPa	955.7
21200 kPa	955.8
21230 kPa	955.8
21267 kPa	955.7
21298 kPa	955.9
21330 kPa	955.8
21368 kPa	955.8
21399 kPa	955.8
21431 kPa	955.9
21462 kPa	955.8
21500 kPa	956
21533 kPa	955.8
21565 kPa	956
21597 kPa	956
21636 kPa	955.9
21669 kPa	956
21702 kPa	956
21740 kPa	956
21773 kPa	956
21806 kPa	956.1
21839 kPa	956.1
21878 kPa	956.2
21912 kPa	956.2
21946 kPa	956.2
21986 kPa	956.1
22020 kPa	956.3
22053 kPa	956.2
22086 kPa	956.1
22236 kPa	956.4
22270 kPa	956.5
22311 kPa	956.5
22345 kPa	956.4
22380 kPa	956.5
22421 kPa	956.5
22456 kPa	956.5
22491 kPa	956.6
22526 kPa	956.5
22569 kPa	956.6
22604 kPa	956.6
22640 kPa	956.7
22675 kPa	956.7
22776 kPa	956.7
22834 kPa	956.7
22870 kPa	956.8
22914 kPa	956.8
22950 kPa	956.8
